Results from ChEMBL document CHEMBL4834498, “Positive allosteric modulators (PAMs) of the group II metabotropic glutamate receptors: Design, synthesis, and evaluation as ex-vivo tool compounds” (Bioorg Med Chem Lett, 2021).
Calls of active or inactive are those of the source. The rule behind the calls is not given here.

Legend:
[1] = target: Metabotropic glutamate receptor 3 (Rattus norvegicus, UniProt P31422); assay: Positive allosteric modulator activity at rat mGlu3 receptor transfected in GIRK channel overexpressing cells assessed as potentiation of glutamate-induced response by thallium mobilization assay
Chain of Metabotropic glutamate receptor 3 (P31422 whole entry): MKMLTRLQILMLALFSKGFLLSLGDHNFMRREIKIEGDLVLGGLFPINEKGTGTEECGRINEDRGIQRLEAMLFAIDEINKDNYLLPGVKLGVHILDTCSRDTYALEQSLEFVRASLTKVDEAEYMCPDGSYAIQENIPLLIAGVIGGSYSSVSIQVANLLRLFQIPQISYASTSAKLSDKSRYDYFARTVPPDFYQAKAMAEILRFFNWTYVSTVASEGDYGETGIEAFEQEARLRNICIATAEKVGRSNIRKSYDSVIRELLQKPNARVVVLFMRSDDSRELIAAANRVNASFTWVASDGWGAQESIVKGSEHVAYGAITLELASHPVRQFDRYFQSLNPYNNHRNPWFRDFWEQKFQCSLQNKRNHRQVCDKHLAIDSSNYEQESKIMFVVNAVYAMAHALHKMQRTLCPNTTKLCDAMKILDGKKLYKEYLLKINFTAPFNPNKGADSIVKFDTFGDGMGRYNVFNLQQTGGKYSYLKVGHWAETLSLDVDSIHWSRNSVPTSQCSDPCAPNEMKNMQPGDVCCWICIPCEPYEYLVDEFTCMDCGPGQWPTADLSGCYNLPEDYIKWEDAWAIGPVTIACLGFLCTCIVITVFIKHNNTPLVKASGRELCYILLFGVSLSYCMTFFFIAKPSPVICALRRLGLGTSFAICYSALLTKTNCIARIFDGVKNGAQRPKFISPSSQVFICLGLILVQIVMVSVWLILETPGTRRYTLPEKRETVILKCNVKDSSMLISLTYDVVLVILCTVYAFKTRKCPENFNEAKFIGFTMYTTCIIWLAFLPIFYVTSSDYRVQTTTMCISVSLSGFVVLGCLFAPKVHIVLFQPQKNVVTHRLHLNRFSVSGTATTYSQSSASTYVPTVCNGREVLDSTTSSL

[2] = target: Metabotropic glutamate receptor 2 (Rattus norvegicus, UniProt P31421); assay: Positive allosteric modulator activity at rat mGlu2 receptor transfected in GIRK channel overexpressing cells assessed as potentiation of glutamate-induced response by thallium mobilization assay
Chain of Metabotropic glutamate receptor 2 (P31421 whole entry): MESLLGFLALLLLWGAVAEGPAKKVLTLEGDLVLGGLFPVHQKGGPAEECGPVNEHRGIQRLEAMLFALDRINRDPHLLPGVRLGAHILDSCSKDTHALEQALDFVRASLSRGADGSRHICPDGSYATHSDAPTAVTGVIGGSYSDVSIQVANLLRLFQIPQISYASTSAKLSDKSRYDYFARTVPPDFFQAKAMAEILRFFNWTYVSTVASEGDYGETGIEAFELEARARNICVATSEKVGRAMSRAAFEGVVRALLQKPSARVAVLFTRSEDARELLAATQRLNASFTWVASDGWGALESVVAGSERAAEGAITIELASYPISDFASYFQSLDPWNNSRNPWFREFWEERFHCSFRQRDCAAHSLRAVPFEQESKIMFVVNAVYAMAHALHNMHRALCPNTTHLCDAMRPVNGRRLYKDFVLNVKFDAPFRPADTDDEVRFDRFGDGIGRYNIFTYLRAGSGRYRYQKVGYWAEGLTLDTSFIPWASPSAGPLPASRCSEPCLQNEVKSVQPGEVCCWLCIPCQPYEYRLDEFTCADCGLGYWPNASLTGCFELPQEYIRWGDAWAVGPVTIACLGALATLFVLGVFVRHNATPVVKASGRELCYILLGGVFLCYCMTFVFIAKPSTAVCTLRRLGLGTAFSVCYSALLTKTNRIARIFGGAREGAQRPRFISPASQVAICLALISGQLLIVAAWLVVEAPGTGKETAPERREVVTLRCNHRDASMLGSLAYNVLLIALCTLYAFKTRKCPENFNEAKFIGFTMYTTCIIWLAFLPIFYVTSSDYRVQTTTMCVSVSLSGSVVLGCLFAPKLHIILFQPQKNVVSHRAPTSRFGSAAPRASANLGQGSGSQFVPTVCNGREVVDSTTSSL

[3] = target: Metabotropic glutamate receptor 3 (Rattus norvegicus) (UniProt P31422); assay: Positive allosteric modulator activity at rat mGlu3 receptor transfected in GIRK channel overexpressing cells assessed as potentiation of glutamate-induced response by thallium mobilization assay relative to glutamate; parameters: concentration or dose not given beside the values
Chain of Metabotropic glutamate receptor 3 (Rattus norvegicus) (P31422 23-879 limits assumed): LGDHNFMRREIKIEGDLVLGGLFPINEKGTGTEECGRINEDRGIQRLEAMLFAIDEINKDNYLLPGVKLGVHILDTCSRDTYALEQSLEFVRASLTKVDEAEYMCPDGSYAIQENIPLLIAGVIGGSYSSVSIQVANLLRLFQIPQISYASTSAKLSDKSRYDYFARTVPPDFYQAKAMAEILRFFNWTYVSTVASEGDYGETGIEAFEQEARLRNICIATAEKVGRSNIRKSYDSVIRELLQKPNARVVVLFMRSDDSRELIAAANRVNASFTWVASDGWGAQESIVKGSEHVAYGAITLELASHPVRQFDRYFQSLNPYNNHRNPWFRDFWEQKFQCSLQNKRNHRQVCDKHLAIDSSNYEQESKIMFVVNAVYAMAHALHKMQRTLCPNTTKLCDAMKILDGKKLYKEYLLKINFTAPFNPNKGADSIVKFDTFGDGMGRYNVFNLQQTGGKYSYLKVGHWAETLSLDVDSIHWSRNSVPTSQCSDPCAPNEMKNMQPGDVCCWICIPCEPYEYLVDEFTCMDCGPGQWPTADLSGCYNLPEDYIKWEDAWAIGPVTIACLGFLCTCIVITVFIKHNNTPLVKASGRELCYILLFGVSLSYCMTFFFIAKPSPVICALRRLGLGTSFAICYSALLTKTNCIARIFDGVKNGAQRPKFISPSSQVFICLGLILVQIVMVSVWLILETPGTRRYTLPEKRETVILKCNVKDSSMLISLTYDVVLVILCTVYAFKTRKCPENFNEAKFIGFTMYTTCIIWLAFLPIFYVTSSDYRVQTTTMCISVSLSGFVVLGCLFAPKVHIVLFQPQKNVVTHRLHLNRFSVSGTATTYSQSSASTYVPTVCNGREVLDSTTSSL

[4] = target: Metabotropic glutamate receptor 2 (Rattus norvegicus) (UniProt P31421); assay: Positive allosteric modulator activity at rat mGlu2 receptor transfected in GIRK channel overexpressing cells assessed as potentiation of glutamate -induced response by thallium mobilization assay relative to glutamate; parameters: concentration or dose not given beside the values
Chain of Metabotropic glutamate receptor 2 (Rattus norvegicus) (P31421 19-872 limits assumed): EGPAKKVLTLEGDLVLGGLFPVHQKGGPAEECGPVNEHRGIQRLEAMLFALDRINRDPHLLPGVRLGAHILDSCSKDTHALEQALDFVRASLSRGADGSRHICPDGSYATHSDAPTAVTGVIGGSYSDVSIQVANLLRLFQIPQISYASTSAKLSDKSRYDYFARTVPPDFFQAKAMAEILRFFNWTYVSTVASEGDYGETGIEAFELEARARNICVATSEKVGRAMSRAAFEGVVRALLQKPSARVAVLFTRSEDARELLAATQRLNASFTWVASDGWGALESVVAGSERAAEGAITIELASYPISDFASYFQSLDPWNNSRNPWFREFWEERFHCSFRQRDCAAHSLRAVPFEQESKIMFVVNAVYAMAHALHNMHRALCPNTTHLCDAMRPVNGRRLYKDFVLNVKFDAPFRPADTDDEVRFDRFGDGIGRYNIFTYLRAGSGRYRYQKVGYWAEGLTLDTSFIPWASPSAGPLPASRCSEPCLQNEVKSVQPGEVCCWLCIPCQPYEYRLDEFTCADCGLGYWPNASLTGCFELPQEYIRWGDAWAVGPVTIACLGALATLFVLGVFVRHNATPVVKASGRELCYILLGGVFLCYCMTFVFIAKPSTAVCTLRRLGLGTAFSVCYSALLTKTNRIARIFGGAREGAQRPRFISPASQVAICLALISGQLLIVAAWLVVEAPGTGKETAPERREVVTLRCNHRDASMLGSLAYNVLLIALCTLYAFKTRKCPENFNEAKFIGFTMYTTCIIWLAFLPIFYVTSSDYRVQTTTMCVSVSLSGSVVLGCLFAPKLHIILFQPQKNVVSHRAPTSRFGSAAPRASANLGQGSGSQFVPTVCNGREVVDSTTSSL

[5] = target: Metabotropic glutamate receptor 3 (Mus musculus) (UniProt Q9QYS2); assay: Positive allosteric modulator activity at mGlu3 receptor in CaMK2-Cre::GCaMP6s transgenic mouse PFC pyramidal cells assessed as potentiation of LY379268-induced Ca2+ mobilization at 10 uM in presence of mGlu2 negative allosteric modulator, VU6001966 by calcium imagining analysis; format: functional; conditions: filed as positive allosteric modulator
Chain of Metabotropic glutamate receptor 3 (Mus musculus) (Q9QYS2 whole entry): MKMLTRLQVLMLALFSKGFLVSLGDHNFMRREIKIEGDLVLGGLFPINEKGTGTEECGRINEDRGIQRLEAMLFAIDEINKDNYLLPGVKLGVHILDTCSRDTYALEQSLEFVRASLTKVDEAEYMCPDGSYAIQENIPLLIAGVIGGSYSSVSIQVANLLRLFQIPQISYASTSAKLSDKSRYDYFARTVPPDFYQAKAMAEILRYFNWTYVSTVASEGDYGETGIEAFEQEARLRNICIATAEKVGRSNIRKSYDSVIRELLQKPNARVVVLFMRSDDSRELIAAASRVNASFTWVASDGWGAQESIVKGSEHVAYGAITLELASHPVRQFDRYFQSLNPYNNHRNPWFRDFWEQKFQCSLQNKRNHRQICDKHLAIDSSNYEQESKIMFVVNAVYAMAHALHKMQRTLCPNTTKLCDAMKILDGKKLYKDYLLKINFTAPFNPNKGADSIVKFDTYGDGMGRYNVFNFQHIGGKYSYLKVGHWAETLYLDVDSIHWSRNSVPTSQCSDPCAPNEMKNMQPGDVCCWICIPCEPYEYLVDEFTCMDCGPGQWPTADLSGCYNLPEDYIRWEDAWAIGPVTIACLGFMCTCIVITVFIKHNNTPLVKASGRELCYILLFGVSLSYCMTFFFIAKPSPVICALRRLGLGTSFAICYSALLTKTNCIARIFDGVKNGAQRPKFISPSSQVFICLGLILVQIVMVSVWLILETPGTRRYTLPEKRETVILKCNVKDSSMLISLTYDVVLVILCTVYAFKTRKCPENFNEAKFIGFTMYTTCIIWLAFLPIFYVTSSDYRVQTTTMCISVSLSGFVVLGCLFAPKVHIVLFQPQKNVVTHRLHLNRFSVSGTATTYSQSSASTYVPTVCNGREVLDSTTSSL

[6] = filed as positive allosteric modulator

SMILES | EC50 ([1]; read-out: EC50) [nM] | EC50 ([2]; read-out: EC50) [nM] | Activity [3, 6] [%] | Activity [4, 6] [%] | Activity [5] | EC50 [1] | EC50 [2] | Activity [3] | Activity [4]
Cc1c(OCC(C)COc2ccc(C(=O)O)cc2Cl)ccc(C(=O)CC(C)(C)C)c1O (single isomer, unassigned) | 1650 | 477 | 98 | 97 | – | – | – | – | –
Cc1c(OCC(C)COc2ccc(C(=O)O)cc2F)ccc(C(=O)CC(C)(C)C)c1O (single isomer, unassigned) | 1300 | 222 | 87 | 98 | – | – | – | – | –
COc1ccccc1OCC(C)COc1ccc(C(=O)CC(C)(C)C)c(O)c1C (single isomer, unassigned) | – | – | – | – | – | Not Active | Not Active | inactive | inactive
Cc1cc(OC[C@H](C)COc2ccc(C(=O)CC(C)(C)C)c(O)c2C)ccc1C(=O)O | 1350 | 305 | 80 | 91 | – | – | – | – | –
COC(=O)c1cc(OCCCCOc2ccc(C(=O)CC(C)(C)C)c(O)c2C)ccc1F | – | – | – | – | – | Not Active | – | inactive | –
Cc1c(OC[C@@H](C)COc2ccc(F)c(C(=O)O)c2)ccc(C(=O)CC(C)(C)C)c1O | 1180 | 112 | 92 | 99 | – | – | – | – | –
COc1ccc(C(=O)O)cc1O[C@H](C)COc1ccc(C(=O)CC(C)(C)C)c(O)c1C | 1850 | – | 111 | – | – | – | – | – | –
COc1ccc(C(=O)O)cc1O[C@@H](C)COc1ccc(C(=O)CC(C)(C)C)c(O)c1C | 2210 | 137 | 91 | 117 | – | – | – | – | –
Cc1cc(C(=O)O)ccc1OC[C@H](C)COc1ccc(C(=O)CC(C)(C)C)c(O)c1C | 1520 | 446 | 97 | 113 | – | – | – | – | –
COc1ccc(OCCCCOc2ccc(C(=O)CC(C)(C)C)c(O)c2C)cc1 | – | > 10000 | – | 103 | – | Not Active | – | inactive | –
COc1ccc(C(=O)N(C)C)cc1OCC(C)COc1ccc(C(=O)CC(C)(C)C)c(O)c1C (single isomer, unassigned) | – | 5060 | – | 82 | – | Not Active | – | inactive | –
Cc1c(OC[C@@H](C)COc2ccc(Cl)c(C(=O)O)c2)ccc(C(=O)CC(C)(C)C)c1O | 2200 | 377 | 73 | 120 | – | – | – | – | –
COc1ccc(C(=O)O)cc1OC[C@H](C)Oc1ccc(C(=O)CC(C)(C)C)c(O)c1C | 3820 | – | 71 | – | – | – | – | – | –
Cc1c(O[C@H](C)COc2ccc(F)c(C(=O)O)c2)ccc(C(=O)CC(C)(C)C)c1O | 2410 | 83 | 79 | 118 | – | – | – | – | –
COc1cccc(OC[C@H](C)COc2ccc(C(=O)CC(C)(C)C)c(O)c2C)c1 | – | – | – | – | – | Not Active | Not Active | inactive | inactive
Cc1c(OC[C@@H](C)COc2ccc3c(c2)C(=O)NC3)ccc(C(=O)CC(C)(C)C)c1O | – | > 10000 | – | 50 | – | Not Active | – | inactive | –
COc1cc(OC[C@H](C)COc2ccc(C(=O)CC(C)(C)C)c(O)c2C)ccc1C(=O)O | 1460 | 194 | 88 | 94 | – | – | – | – | –
Cc1ccc(OC[C@H](C)COc2ccc(C(=O)CC(C)(C)C)c(O)c2C)cc1C(=O)O | > 10000 | – | 48 | – | – | – | – | – | –
Cc1c(OC[C@@H](C)Oc2ccc(F)c(C(=O)O)c2)ccc(C(=O)CC(C)(C)C)c1O | 1210 | 112 | 117 | 125 | – | – | – | – | –
Cc1c(OCC(C)COc2cc(C(=O)O)ccc2F)ccc(C(=O)CC(C)(C)C)c1O (single isomer, unassigned) | 3950 | – | 74 | – | – | – | – | – | –
Cc1c(OCCCCOc2ccc(C(=O)O)cc2F)ccc(C(=O)CC(C)(C)C)c1O | 1230 | 75 | 98 | 114 | – | – | – | – | –
Cc1c(OCCCCOc2ccc(F)c(C(=O)N(C)C)c2)ccc(C(=O)CC(C)(C)C)c1O | – | 3810 | – | 60 | – | Not Active | – | inactive | –
Cc1c(O[C@@H](C)COc2ccc(F)c(C(=O)O)c2)ccc(C(=O)CC(C)(C)C)c1O | 1120 | 257 | 89 | 114 | – | – | – | – | –
Cc1c(OCCCCOc2ccc(F)c(C(N)=O)c2)ccc(C(=O)CC(C)(C)C)c1O | – | > 10000 | – | 107 | – | Not Active | – | inactive | –

Continued, values first:

EC50 ([1]; read-out: EC50) [nM] | EC50 ([2]; read-out: EC50) [nM] | Activity [3, 6] [%] | Activity [4, 6] [%] | Activity [5] | EC50 [1] | EC50 [2] | Activity [3] | Activity [4] | SMILES
703 | 102 | 102 | 116 | – | – | – | – | – | COc1cc(OCCCCOc2ccc(C(=O)CC(C)(C)C)c(O)c2C)cc(C(=O)O)c1
180 | 490 | 91 | 120 | – | – | – | – | – | Cc1c(OCCCCOc2cncc(C(=O)O)c2)ccc(C(=O)CC(C)(C)C)c1O
476 | 164 | 103 | 110 | Active | – | – | – | – | CNC(=O)c1cc(OCCCCOc2ccc(C(=O)CC(C)(C)C)c(O)c2C)ccc1F
651 | 294 | 87 | 114 | – | – | – | – | – | Cc1c(OC[C@H](C)COc2ccc(F)c(C(=O)O)c2)ccc(C(=O)CC(C)(C)C)c1O
806 | 78 | 97 | 114 | – | – | – | – | – | COc1ccc(C(=O)O)cc1OC[C@@H](C)Oc1ccc(C(=O)CC(C)(C)C)c(O)c1C
512 | 28 | 93 | 110 | – | – | – | – | – | COc1cc(C(=O)O)ccc1OC[C@H](C)COc1ccc(C(=O)CC(C)(C)C)c(O)c1C
1100 | 142 | 105 | 122 | – | – | – | – | – | Cc1c(OC[C@H](C)Oc2ccc(F)c(C(=O)O)c2)ccc(C(=O)CC(C)(C)C)c1O
384 | 63 | 111 | 98 | Active | – | – | – | – | COc1ccc(C(=O)O)cc1OC[C@H](C)COc1ccc(C(=O)CC(C)(C)C)c(O)c1C
1040 | – | 120 | – | – | – | – | – | – | COc1ccc(C(=O)O)cc1OC[C@@H](C)COc1ccc(C(=O)CC(C)(C)C)c(O)c1C
79 | 28 | 103 | 116 | – | – | – | – | – | Cc1ncc(OCCCCOc2ccc(C(=O)CC(C)(C)C)c(O)c2C)cc1C(=O)O
490 | 13 | 99 | 116 | – | – | – | – | – | COc1ccc(OCCCCOc2ccc(C(=O)CC(C)(C)C)c(O)c2C)cc1C(=O)O
130 | 87 | 87 | 112 | – | – | – | – | – | Cc1c(OCCCCOc2ccc(Cl)c(C(=O)O)c2)ccc(C(=O)CC(C)(C)C)c1O
892 | 512 | 144 | 120 | – | – | – | – | – | Cc1ccc(C(=O)O)cc1OCCCCOc1ccc(C(=O)CC(C)(C)C)c(O)c1C
1110 | 80 | 107 | 108 | – | – | – | – | – | Cc1c(OCCCCOc2ccc(C(=O)O)c(F)c2)ccc(C(=O)CC(C)(C)C)c1O
309 | 210 | 88 | 90 | – | – | – | – | – | Cc1ccc(OCCCCOc2ccc(C(=O)CC(C)(C)C)c(O)c2C)cc1C(=O)O
1090 | 261 | 86 | 94 | – | – | – | – | – | Cc1c(OC[C@@H](C)COc2ccc(C(=O)O)c(F)c2)ccc(C(=O)CC(C)(C)C)c1O
860 | 50 | 93 | 107 | – | – | – | – | – | Cc1c(OC[C@@H](C)COc2ccc(C(=O)O)c(Cl)c2)ccc(C(=O)CC(C)(C)C)c1O
